Test results published in US6716574B2, “Osp-C derived peptide fragments” (Dako A/S, priority 1996, dated 2004).

Legend:
Type in all cases: binding, human
[1] = tested on: IgM in serum from a patient with established neuroborreliosis; assay: Western blot with the decapeptide as serodiagnostic test antigen; conditions: 10 ug peptide on nitrocellulose, NB serum 1:100, preliminary experiments
Method: After three further washes in TRIS buffered saline with Tween, antibody reactive peptide was detected with alkaline phosphatase-coupled rabbit anti-human immune globulin M (DAKO, Denmark; cat. no. 337). The conjugate was diluted 1:1000 in TRIS buffered saline with 1% BSA and the NC membrane was incubated with colour substrate (BCIP and NBT; 1:500) for 10 minutes.

[2] = tested on: IgG antibodies in Lyme borreliosis sera; assay: IgG antibodies to the C-terminal decapeptide in Lyme borreliosis sera
[3] = tested on: IgM antibodies to OspC in sera from patients; assay: Indirect streptavidin ELISA for IgM antibodies against carboxy-terminal OspC deca-peptide (peptide ELISA)
Method: Indirect Streptavidin ELISA for IgM Antibodies against Carboxy-terminal OspC Deca-peptide (Peptide ELISA)
Flat-bottom microdilution plates (Maxisorb; Nunc, Roskilde, Denmark) were coated with 100 μl of streptavidin (ZYMED, S. Avidinii) 2.5 μg/ml in citrate buffer (pH 5) and incubated overnight at 4° C. The plates were washed four times a one minute with phosphate buffered saline (PBS) containing 0.5 M NaCl and 0.1% (vol/vol) Tween 20 (pH 7.2), 100 μl of the biotinylated synthetic peptide
(prodiluted in PBS containing 0.37 M NaCl, 0.5% (vol/vol) Tween 20, and 1% (wt/vol) milk powder (pH 7.0)) was added to the wells and the plates were incubated overnight at 4° C. The plates were washed four times a one minute with PBS containing 0.5 M NaCl and 0.1% (vol/vol) Tween 20 (pH 7.2), and 100 μl of test serum diluted 1:200 in PBS containing 0.7 M NaCl, 0.1% (vol/vol) Tween 20, and 1% (wt/vol) milkpowder (pH 7, 2) was added to the wells and incubated for 2 hours at 20° C. on a rocker platform. The plates were washed four times à one minute with PBS containing 0.5 M NaCl and 0.1% (vol/vol) Tween 20 (pH 7.2), and 100 μl of peroxidase conjugated rabbit anti-human IgM (code P215; Dako-patts, Copenhagen, Denmark) diluted 1:1000 in PBS containing 0.5% Tween 20 and 1% milkpowder (pH 7.4) was added to the wells and incubated for 1 h at 20° C. The plates were washed four times à one minute with PBS containing 0.5 M NaCl and 0.1% (vol/vol) Tween 20 (pH 7.2), and 200 μl of the substrate o-phenylenediamine (0.33 mg/ml; Kem-En-Tec, Denmark, tablets of 10 mg) in citrate buffer (pH 5) with 0.04% (vol/vol) H2O2 was added to each well. After 15 minutes protected from light, the enzymatic reaction was stopped by the addition of 50 μl of 3 M H2SO4. The optical density (OD) at 492 nm was read spectrophotometrically on an Immuno Reader, Easy reader EAR 400 AC, SLT Labinstruments, AUSTRIA. Samples were tested in duplicate and retested if the two OD values differed more than 10% from the mean. To eliminate plate-to-plate and day-to-day variations, a reference serum pool based on seven western blot positive sera were included on every plate for construction of a standard dilution curve with a two fold dilution ranging from 1:200 to 1:6400. The OD value of every sample was adjusted to this standard curve. Positive and negative control sera were included on every plate. The positive control sera were diluted 1:200, 1:400 and 1:800 on every plate to check for parallelism between the standard reference curve and the dilution curve of the positive control sera. […]

[4] = tested on: IgG reactive with OspC in patient sera; assay: IgG rOspC ELISA combined with IgG flagellum ELISA
[5] = tested on: IgM antibodies to OspC in sera from patients; assay: Indirect ELISA for IgM antibodies to full-length and truncated recombinant OspC (rOspC ELISA); conditions: for frequency (%) of positive sera, rOspCfl ELISA: IgM; for diagnostic sensitivity for IgM: set of preliminary tests
Method: Indirect ELISA for IgM Antibodies to Full-length and Truncated Recombinant OspC (rOspC ELISA)
Flat-bottom microdilution plates (Maxisorb; Nunc, Roskilde, Denmark) were coated with 100 μl of rOspC diluted in 0.05 M bicarbonate pH 9.6 for 1 hour at 20° C. on a rocker platform and thereafter overnight at 4° C. The optimum coating concentration was defined as the antigen dilution resulting in the highest ratio of the optical density (OD) between a positive and a negative control serum (P/N ratio). The plates were washed four times à one minute with PBS containing 0.5 M NaCL, and 0.1% (vol/vol) Tween 20 (pH 7.2) and unspecific protein binding was blocked with 100 μl 3% (wt/vol) milk powder in PBS for 1 hour. The plates were washed four times à one minute with PBS containing 0.5 M NaCL, and 0.1% (vol/vol) Tween 20 (pH 7.2). 100 μl of serum diluted 1:200 in PBS containing 0.1% (vol/vol) Tween 20, 0.02% NaN3 and 1% (wt/vol) milk powder was added to the wells and incubated for 2 h at 20° C. The plates were washed four times à one minute with PBS containing 0.5 M NaCL, and 0.1% (vol/vol) Tween 20 (pH 7.2) and 100 μl peroxidase conjugated rabbit anti-human immunoglobulin M (IgM) (Dakopats, Copenhagen, Denmark, code P-215) diluted 1:1000 in PBS pH 7.4 with 0.05% (vol/vol) Tween 20 and 1% (wt/vol) milk powder. After the incubation for 1 h at 20° C. the plates were washed four times à one minute with PBS containing 0.5 M NaCL, and 0.1% (vol/vol) Tween 20 (pH 7.2) and 200 μl of the substrate o-phenylenediamine (0.41 mg/ml; Sigma) in citrate buffer (pH 5) with 0.04% (vol/vol) H2O2) was added to each well. After 15 minutes protected from light, the enzymatic reaction was stopped by the addition of 50 μl of 3M H2SO4. The optical density (OD) at 492 nm was read spectrophotometrically (Immuno Reader, Easy reader EAR 400 AC—SLT Labinstruments, AUSTRIA). Samples were tested in duplicate and retested, if the two OD values differed more than 10% from the mean. To eliminate plate-to-plate and day-to-day variations, a reference serum pool based on seven western blot positive sera were included on every plate for construction of a standard dilution curve with a two fold dilution ranging from 1:200 to 1:6400. The OD value of every sample was adjusted to this standard curve. Positive and negative control sera were included on every plate. The positive control sera were diluted 1:200, 1:400 and 1:800 on every plate to check for parallelism between the standard reference curve and the dilution curve of the positive control sera.
The diagnostic cutoff OD was adjusted to be 98% specific for an IgM assay on the basis of serum samples from 100 healthy danish blood donors, and was 0.230 for the IgM assay.
In a preliminary setup, rOspCt was used in the above-described rOspC ELISA. Sera from 47 patients with EM, 50 with NB, 30 with ACA and 29 with syphilis were tested against rOspCt.
The capability of an immunological agent according to the present invention to react with sera from patients in various stages of Lyme borreliosis was evaluated against that of recombinant OspC derived from B. garinii and against conventional flagellum ELISAs (performed as described in Hansen K. et al. (1991) and Hansen K. et al. (1988)). These flagellum assays (testing for IgM and IgG antibodies to native B. burgdorferi flagellum) are commercially available, a μ-capture ELISA (DAKO, Denmark code K006), and an indirect IgG ELISA (DAKO, Denmark code K416). Both assays use flagella purified from strain DK1 belonging to the genospecies of B. afzelii. The ELISAs were performed according to the instructions of the manufacturer, and the results were expressed as optical density (OD) values. In both assays the diagnostic cut-off level was adjusted to a specificity of 98% based on the examination of 100 blood donors.

In the case of “NH2-Pro-Val-Val-Ala-Glu-Ser-Pro-Lys-Lys-Pro-COOH (H-PVVAESPKKP-OH; listed as Borrelia garinii) [SEQ ID NO: 1, C-terminal decapeptide of B. burgdorferi sensu lato OspC]”, the “usability as serodiagnostic test antigen in western blot” value [1] is reported as “can be used as a serodiagnostic test antigen” and the “Lyme borreliosis sera comprising IgG antibodies to the peptide” value [2] is reported as “only few”.

For “6-aminohexanoic acid-Pro-Val-Val-Ala-Glu-Ser-Pro-Lys-Lys-Pro [Peptide]”, the “OD titer compared with the rOspCfl ELISA” value ([3]; EM and NB sera, IgM, FIGS. 1-4) was “significantly higher”, the “frequency (%) of positive sera, Peptide ELISA” value (from here on “frequency (%) … Peptide ELISA”) ([3]; EM sera (n = 80), IgM, cutoff OD 0.460) was “n = 26 (32.5%)” and the “Peptide IgM negative and Flagellum IgM negative” value ([3]; EM, n = 80) was “n = 44 (55.00%)”. The “Peptide IgM negative and Flagellum IgM positive” value ([3]; EM, n = 80) was “n = 10 (12.50)”, the “Peptide IgM positive and Flagellum IgM negative” value ([3]; EM, n = 80) was “n = 6 (7.50%)” and the “Peptide IgM positive and Flagellum IgM positive” value ([3]; EM, n = 80) was “n = 20 (25.00%)”. The “Peptide IgM negative” value ([3]; EM, n = 80, all sera) was “n = 54 (67.5%)”, the “Peptide IgM positive” value ([3]; EM, n = 80, all sera) was “n = 26 (32.5%)” and the “frequency (%) … Peptide ELISA” value ([3]; Early Lyme borreliosis (EM and NB) sera (n = 181), IgM) was “n = 72 (39.8%)”. The “frequency (%) … Peptide ELISA” value ([3]; NB sera (n = 101), IgM) was “n = 46 (45.5%)”, the “Decapeptide IgM negative and Flagellum IgM negative” value ([3]; NB, n = 101) was “n = 25 (24.75%)” and the “Decapeptide IgM negative and Flagellum IgM positive” value ([3]; NB, n = 101) was “n = 30 (29.70%)”. For the same molecule, the “Decapeptide IgM positive and Flagellum IgM negative” value ([3]; NB, n = 101) was “n = 12 (11.88%)”, the “Decapeptide IgM positive and Flagellum IgM positive” value ([3]; NB, n = 101) was “n = 33 (32.67%)” and the “Decapeptide IgM negative” value ([3]; NB, n = 101, all sera) was “n = 55 (54.5%)”. The “Decapeptide IgM positive” value ([3]; NB, n = 101, all sera) was “n = 46 (45.5%)”, the “sensitivity of the peptide ELISA relative to the rOspCfl ELISA” value ([3]; detecting early Lyme borreliosis (stage 1 and 2)) was “approximately 86%” and the “increase of overall sensitivity for IgM when adding peptide ELISA results to flagellum ELISA results” value ([3]; first stage (EM)) was 7.5%. The “accuracy (ROC plot) compared with the rOspCfl ELISA” value ([3]; patients suffering from NB, FIG. 6) was “more accurate” and the “increase of overall sensitivity for IgM when adding peptide ELISA results to flagellum ELISA results” value ([3]; second stage (NB)) was 12%.

B1: rOspCfl: full-length recombinant OspC from Borrelia garinii strain DK6 (SEQ ID NO: 3), six-His fusion protein (protein, listed as Borrelia garinii)
chain: MKKNTLSAILMTLFLFISCNNSGGDSASTNPDESAKGPNLTVISKKITDSNAFLLAVKEVEALLSSIDELSKAIGKKIKNDGTLDNEANRNESLIAGAYEISKLITQKLSVLNSEELKEKIKEAKDCSEKFTTKLKDSHAELGIQSVQDDNAKKAILKTHGTKDKGAKELEELFKSLESLSKAAQAALTNSVKELTNPVVAESPKKP
modifications: six-His tag
In the case of B1, the “improvement on adding IgG rOspC ELISA results to IgG flagellum ELISA results” value [4] is reported as “no significant improvement”, the “frequency (%) of positive sera, rOspCfl ELISA” value (from here on “frequency (%) … rOspCfl ELISA”) ([5]; EM sera (n = 80), B. garinii rOspCfl, cutoff OD 0.230) is reported as “n = 45 (43.8%)” and the “rOspCfl IgM negative and Flagellum IgM negative” value ([5]; EM, n = 80) is reported as “n = 38 (47.50%)”. The “rOspCfl IgM negative and Flagellum IgM positive” value ([5]; EM, n = 80) was “n = 7 (8.75%)”, the “rOspCfl IgM positive and Flagellum IgM negative” value ([5]; EM, n = 80) was “n = 12 (15.00%)” and the “rOspCfl IgM positive and Flagellum IgM positive” value ([5]; EM, n = 80) was “n = 23 (28.75%)”. For the same molecule, the “rOspCfl IgM negative” value ([5]; EM, n = 80, all sera) was “n = 45 (56.25%)”, the “rOspCfl IgM positive” value ([5]; EM, n = 80, all sera) was “n = 35 (43.75%)” and the “frequency (%) … rOspCfl ELISA” value ([5]; Early Lyme borreliosis (EM and NB) sera (n = 181)) was “n = 94 (46.4%)”. For the same molecule, the “frequency (%) … rOspCfl ELISA” value ([5]; NB sera (n = 101), B. garinii rOspCfl) was “n = 49 (48.5%)”, the “rOspCfl IgM negative and Flagellum IgM negative” value ([5]; NB, n = 101) was “n = 25 (24.75%)” and the “rOspCfl IgM negative and Flagellum IgM positive” value ([5]; NB, n = 101) was “n = 26 (25.74%)”. The “rOspCfl IgM positive and Flagellum IgM negative” value ([5]; NB, n = 101) was “n = 12 (11.88%)”, the “rOspCfl IgM positive and Flagellum IgM positive” value ([5]; NB, n = 101) was “n = 37 (36.63%)” and the “rOspCfl IgM negative” value ([5]; NB, n = 101, all sera) was “n = 52 (51.5%)”. The “rOspCfl IgM positive” value ([5]; NB, n = 101, all sera) was “n = 49 (48.5%)”, the “increase of overall diagnostic sensitivity for IgM when adding rOspCfl ELISA results to flagellum ELISA results” value ([5]; first stage of Lyme borreliosis (EM)) was 15% and the “diagnostic sensitivity for IgM” value ([5]; first stage of Lyme borreliosis) was 44%. For the same molecule, the “increase of overall diagnostic sensitivity for IgM when adding rOspCfl ELISA results to flagellum ELISA results” value ([5]; second stage of Lyme borreliosis (NB)) was 12% and the “diagnostic sensitivity for IgM” value ([5]; second stage of Lyme borreliosis) was 48%.
